For the series the following is noted: pH 2.7.

The values that follow come from US9090600B2, “Fungicidal 4-substituted-3-{phenyl[(heterocyclylmethoxy)imino]methyl}-1,2,4-oxadizol-5(4H)-one derivatives” (BAYER INTELLECTUAL PROPERTY GMBH, priority 2011, dated 2015).

Marks after values point to notes of the source that are not given here.

For the molecule `CC(OCc1ccccc1)C(=O)Nc1cccc(CO/N=C(/c2ccccc2)c2noc(=O)n2C)n1` (centres unmarked) [Example 156], the LogP (usually the decadic logarithm of the partition coefficient of the neutral form, usually between octanol and water) was 4.15 [a].

For the molecule `COc1ccc(/C(=N/OCc2cccc(N)n2)c2noc(=O)n2C)cc1` [Example 157], the lipophilicity (LogP) is 1.35 [a].

For `Cn1c(/C(=N\OCc2csc(NC(=O)COc3ccccc3Br)n2)c2ccccc2)noc1=O` [Example 159], the log partition coefficient (LogP) was 3.89 [a].

In the case of `CCCCC(C)(C)C(=O)Nc1nc(CO/N=C(/c2ccccc2)c2noc(=O)n2C)cs1` [Example 160], the LogP is 4.48 [a].

For `Cn1c(/C(=N\OCc2cccc(NC(=O)SC(C)(C)C)n2)c2ccccc2)noc1=O` [Example 162], the LogP is 4.39 [a].

`Cn1c(/C(=N\OCc2csc(NC(=O)COc3ccc(Cl)cc3)n2)c2ccccc2)noc1=O` [Example 164]: the LogP was 3.85 [a].

As to `CCCCC(=O)Nc1nc(CO/N=C(/c2ccc(C)cc2)c2noc(=O)n2C)cs1` [Example 169], the LogP was 3.7 [a].

Turning to `Cn1c(/C(=N\OCc2cccc(NC(=O)c3ccc(I)cc3)n2)c2ccccc2)noc1=O` [Example 174], the LogP was 4.29 [a].

For the molecule `CC(Oc1cccc(Br)c1)C(=O)Nc1cccc(CO/N=C(/c2ccccc2)c2noc(=O)n2C)n1` (centres unmarked) [Example 179], the LogP is 4.46 [a].

`COc1ccccc1C(=O)Nc1cccc(CO/N=C(/c2ccccc2)c2noc(=O)n2C)n1` [Example 181]: the LogP is 3.87 [a].

`CCCCOC(=S)Nc1cccc(CO/N=C(/c2ccccc2)c2noc(=O)n2C)n1` [Example 183]: the LogP was 4.53 [a].

As to `CCC1(C(=O)Nc2cccc(CO/N=C(/c3ccccc3)c3noc(=O)n3C)n2)C(C)C1(Cl)Cl` (centres unmarked) [Example 189], the LogP was 4.35 [a].

On to `CC(C)(C)OC(=O)Nc1cccc(CO/N=C(\c2noc(=O)[nH]2)c2ccccc2F)n1` [Example 193], for which the lipophilicity (LogP) was 3.68 [a].

On to `Cn1c(/C(=N\OCc2csc(NC(=O)COCc3ccccc3)n2)c2ccccc2)noc1=O` [Example 194], for which the LogP is 3.6 [a].

Regarding `Cn1c(/C(=N\OCc2cccc(NC(=O)Cc3ccc(Cl)cc3)n2)c2ccccc2)noc1=O` [Example 196], the LogP was 3.92 [a].

In the case of `Cn1c(/C(=N\OCc2csc(NC(=O)Cc3ccccc3)n2)c2cccc(F)c2)noc1=O` [Example 203], the LogP is 3.46 [a].

Consider `CC(Oc1ccc(Br)cc1)C(=O)Nc1cccc(CO/N=C(/c2ccccc2)c2noc(=O)n2C)n1` (centres unmarked) [Example 204], for which the LogP was 4.46 [a].

`Cn1c(/C(=N\OCc2cccc(NC(=O)OCCCC(F)(F)F)n2)c2ccccc2)noc1=O` [Example 205]: the LogP is 3.85 [a].

On to `Cc1ccccc1OCC(=O)Nc1nc(CO/N=C(/c2ccccc2)c2noc(=O)n2C)cs1` [Example 213], for which the LogP was 3.85 [a].

Consider `CC(C)(C)OC(=O)Nc1cccc(CO/N=C(/c2ccc(F)cc2)c2noc(=O)[nH]2)n1` [Example 214], for which the LogP was 3.78 [a].

In the case of `COc1ccc(C(=O)Nc2cccc(CO/N=C(/c3ccccc3)c3noc(=O)n3C)n2)cc1` [Example 217], the LogP is 3.53 [a].

Turning to `Cn1c(/C(=N\OCc2csc(NC(=O)C(F)(F)Oc3ccccc3)n2)c2ccccc2)noc1=O` [Example 220], the LogP was 3.89 [a].

Turning to `Cn1c(/C(=N\OCc2cccc(NC(=O)C3(c4ccc(Cl)cc4Cl)CC3)n2)c2ccccc2)noc1=O` [Example 222], the LogP is 4.96 [a].

As for `CC(Oc1ccccc1Cl)C(=O)Nc1cccc(CO/N=C(/c2ccccc2)c2noc(=O)n2C)n1` (centres unmarked) [Example 231], the LogP is 4.41 [a].

Consider `Cn1c(/C(=N\OCc2csc(NC(=O)C3COc4ccccc4O3)n2)c2cccc(F)c2)noc1=O` (centres unmarked) [Example 234], for which the LogP was 3.7 [a].

For the molecule `Cn1c(/C(=N\OCc2cccc(NC(=O)OCCc3ccc(Br)cc3)n2)c2ccccc2)noc1=O` [Example 238], the LogP was 4.63 [a].

With `CC(C)CSC(=O)Nc1cccc(CO/N=C(/c2ccccc2)c2noc(=O)n2C)n1` [Example 241], the LogP was 4.39 [a].

With `C#CC(C)OC(=O)Nc1cccc(CO/N=C(/c2ccccc2)c2noc(=O)n2C)n1` (centres unmarked) [Example 242], the LogP was 3.41 [a].

Take `Cn1c(C(=NOCc2cccc(NC(=O)OC(C)(C)C)n2)c2cccc(F)c2F)noc1=O` [Example 249]: the LogP was 3.94 [a].

Consider `Cc1ccc(C(=NOCc2csc(NC(=O)Cc3ccccc3)n2)c2noc(=O)n2C)cc1` [Example 252], for which the LogP is 3.65 [a].

On to `Cn1c(C(=NOCc2cccc(NC(=O)OC(C)(C)C)n2)c2cccc(F)c2F)noc1=O` [Example 254], for which the LogP was 4.01 [a].

With `Cn1c(C(=NOCc2cccc(N)n2)c2ccc(F)cc2)noc1=O` [Example 259], the LogP was 1.41 [a].

On to `CC(Oc1ccc(Cl)cc1)C(=O)Nc1cccc(CON=C(c2ccccc2)c2noc(=O)n2C)n1` (centres unmarked) [Example 260], for which the LogP is 4.35 [a].

As to `Cn1c(C(=NOCc2cccc(NC(=O)COc3ccccc3Br)n2)c2ccccc2)noc1=O` [Example 269], the LogP was 4.25 [a].

For the molecule `CC(C)CC(C)OC(=O)Nc1cccc(CO/N=C(/c2ccccc2)c2noc(=O)n2C)n1` (centres unmarked) [Example 273], the LogP was 4.68 [a].

For the molecule `Cn1c(/C(=N\OCc2cccc(NC(=O)COc3ccc(Cl)cc3Cl)n2)c2ccccc2)noc1=O` [Example 274], the LogP is 4.61 [a].

Turning to `CC(Oc1ccccc1Br)C(=O)Nc1cccc(CO/N=C(/c2ccccc2)c2noc(=O)n2C)n1` (centres unmarked) [Example 275], the LogP was 4.53 [a].

Turning to `Cc1cc(Cl)ccc1OCCCC(=O)Nc1cccc(CO/N=C(/c2ccccc2)c2noc(=O)n2C)n1` [Example 277], the LogP was 4.73 [a].

Consider `CCCOC(=S)Nc1cccc(CO/N=C(/c2ccccc2)c2noc(=O)n2C)n1` [Example 283], for which the LogP was 4.11 [a].

On to `Cc1ccc(OC(C)C(=O)Nc2cccc(CO/N=C(/c3ccccc3)c3noc(=O)n3C)n2)cc1` (centres unmarked) [Example 287], for which the LogP is 4.35 [a].

Regarding `Cn1c(/C(=N\OCc2cccc(NC(=O)OCCCC(F)(F)C(F)(F)F)n2)c2ccccc2)noc1=O` [Example 293], the LogP is 4.29 [a].

Consider `Cn1c(/C(=N\OCc2cccc(NC(=O)c3ccccc3Oc3ccccc3)n2)c2ccccc2)noc1=O` [Example 294], for which the LogP was 4.76 [a].

`Cn1c(/C(=N\OCc2cccc(NC(=O)OCCc3ccccc3Br)n2)c2ccccc2)noc1=O` [Example 298]: the LogP is 4.66 [a].

For `CC(OC(=O)Nc1cccc(CO/N=C(/c2ccccc2)c2noc(=O)n2C)n1)C(C)(C)C` (centres unmarked) [Example 305], the log partition coefficient (LogP) was 4.56 [a].

As to `Cn1c(/C(=N\OCc2cccc(NC(=O)COc3cccc(F)c3)n2)c2ccccc2)noc1=O` [Example 311], the LogP is 3.78 [a].

Consider `Cn1c(/C(=N\OCc2csc(NC(=O)COc3cccc(Br)c3)n2)c2ccccc2)noc1=O` [Example 314], for which the LogP is 3.94 [a].

As for `Cn1c(/C(=N\OCc2csc(NC(=O)COc3ccccc3)n2)c2ccccc2)noc1=O` [Example 315], the LogP was 3.51 [a].

For `Cc1ccc(/C(=N/OCc2csc(NC(=O)C(C)Oc3ccccc3)n2)c2noc(=O)n2C)cc1` (centres unmarked) [Example 319], the LogP is 3.99 [a].

For `CCCCSC(=O)Nc1cccc(CO/N=C(/c2ccccc2)c2noc(=O)n2C)n1` [Example 320], the LogP is 4.41 [a].

Regarding `Cc1ccc(/C(=N/OCc2csc(N)n2)c2noc(=O)n2C)cc1` [Example 326], the LogP was 1.82 [a].

`COc1ccc(/C(=N/OCc2cccc(NC(=O)OC(C)(C)C)n2)c2noc(=O)[nH]2)cc1` [Example 333]: the LogP is 3.69 [a].

For the molecule `Cc1cccc(OCC(=O)Nc2cccc(CO/N=C(/c3ccccc3)c3noc(=O)n3C)n2)c1` [Example 334], the LogP is 4.07 [a].

On to `CC(Oc1ccccc1)C(=O)Nc1nc(CO/N=C(/c2cccc(F)c2)c2noc(=O)n2C)cs1` (centres unmarked) [Example 338], for which the LogP was 3.76 [a].

In the case of `Cc1ccc(C(=NOCc2csc(NC(=O)OC3CCCCC3)n2)c2noc(=O)n2C)cc1` [Example 339], the LogP was 4.48 [a].

On to `Cn1c(/C(=N\OCc2cccc(NC(=O)OCCc3ccc(Cl)cc3)n2)c2ccccc2)noc1=O` [Example 349], for which the LogP is 4.53 [a].

Turning to `CCCCC(C)(C)OC(=O)Nc1cccc(CO/N=C(/c2ccccc2)c2noc(=O)n2C)n1` [Example 353], the LogP is 5.1 [a].

With `Cc1cccc(OCC(=O)Nc2nc(CO/N=C(/c3ccccc3)c3noc(=O)n3C)cs2)c1` [Example 356], the LogP was 3.8 [a].

Take `Cn1c(/C(=N\OCc2cccc(NC(=O)OCCc3cccc(Cl)c3)n2)c2ccccc2)noc1=O` [Example 359]: the LogP is 4.51 [a].

Regarding `Cc1ccc(C(=NOCc2csc(N(C)C=O)n2)c2noc(=O)n2C)cc1` [Example 360], the LogP was 3.06 [a].

For the molecule `Cn1c(/C(=N\OCc2csc(NC(=O)COc3cccc(Cl)c3)n2)c2ccccc2)noc1=O` [Example 368], the LogP was 3.87 [a].

Take `CCCCC(=O)Nc1nc(CO/N=C(/c2cccc(F)c2)c2noc(=O)n2C)cs1` [Example 370]: the LogP was 3.48 [a].

As for `Cn1c(/C(=N\OCc2cccc(NC(=O)COc3cccc(Br)c3)n2)c2ccccc2)noc1=O` [Example 382], the LogP is 4.2 [a].

In the case of `CCCCSC(=S)Nc1cccc(CO/N=C(/c2ccccc2)c2noc(=O)n2C)n1` [Example 385], the LogP is 4.8 [a].

As for `Cc1cccc(/C(=N/OCc2cccc(NC(=O)c3cccc(F)c3)n2)c2noc(=O)n2C)c1` [Example 391], the LogP is 3.99 [a].

Consider `COc1ccc(C(=O)Nc2nc(CO/N=C(/c3ccccc3)c3noc(=O)n3C)cs2)cc1` [Example 393], for which the LogP was 3.48 [a].

In the case of `Cc1ccc(C2(C(=O)Nc3cccc(CO/N=C(/c4ccccc4)c4noc(=O)n4C)n3)CC2)cc1` [Example 397], the LogP was 4.76 [a].

As to `Cc1ccccc1OC(C)C(=O)Nc1cccc(CO/N=C(/c2ccccc2)c2noc(=O)n2C)n1` (centres unmarked) [Example 398], the LogP was 4.46 [a].

On to `COc1cccc(C(=NOCc2cccc(NC(=O)c3cccc(F)c3)n2)c2noc(=O)n2C)c1` [Example 399], for which the LogP is 3.72 [a].
